Test: Free radicals generated inside a formulation containing perfume after UV irradiation (ESR, spin marker PCA)
Assay type: physicochemical
Details: 0.1% (w/w) perfume in formulation, diluted 1:10 in water, 0.01 mM PCA; UVB 23,5 W/m^2, UVA 180 W/m^2
Procedure: To measure the free radicals generation inside a formulation after UV irradiation, the concentration of a photostable spin marker added to the tested samples is followed by Electron Spin Resonance (ESR) spectroscopy before and after UV irradiation of the tested samples. The photostable spin marker will promptly react with the free radical generated in the formulation after UV irradiation.
0.1% (w/w) of the perfume to be tested is incorporated into the formulation, the formulation is then diluted in distillated water (1:10 dilution factor) and a water solution of the spin marker PCA (2,2,5,5,-tetramethyl pyrrolidine N-oxyl) is added to obtain a spin marker concentration of 0.01 mM. […] The sample is inserted in a capillary quartz tube to perform ESR measurement before and after 20 minutes of UV irradiation. The irradiances as integrated value over the spectral ranges of the solar simulator can exemplarily be E=23,5W/m^2 for UVB and 180W/m^2 for UVA.
The percentage of UV-induced free radicals inside the formulation containing the perfume to be tested serves as indicator to the sensitivity of said perfume.
The Electron Spin Resonance (ESR) measurements were performed with a high sensitive X-band bench top Electron Spin Resonance Spectrometer MiniScope MS300, supplied from Magnettech GmbH Berlin, Germany.
To measure the free radicals generation inside the formulation after UV irradiation, the concentration of a photostable spin marker added to the tested samples was followed by
Electron Spin Resonance (ESR) spectroscopy before and after UV irradiation of the tested samples. The photostable spin marker promptly reacted with the free radical generated in the formulation after UV irradiation.
0.1% (w/w) of the perfume to be tested (compare to Table 1) was incorporated into the formulation. The formulation was then diluted in distillated water (1:10 dilution factor) and a water solution of the spin marker PCA (2,2,5,5,-tetramethyl pyrrolidine N-oxyl) was added to obtain a spin marker concentration of 0.01 mM. Knowing the concentration of the spin trap PCA within the formulation, the amount of reduced PCA was calculated. The sample was inserted in a capillary quartz tube to perform ESR measurement before and after 20 minutes of UV irradiation. The irradiances as integrated value over the spectral ranges of the solar simulator were E=23,5 W/m^2 for UVB and 180 W/m^2 for UVA.
In the case of OCc1ccccc1 [Benzyl Alcohol], the “% free radicals after 20 min UV irradiation” value (“% free radicals” for short) is reported as 4.4%.
In the case of O=C(OCc1ccccc1)c1ccccc1O [Benzyl Salicylate, benzyl 2-hydroxybenzoate], the “% free radicals” value is reported as 17.5%.
With CC(C)=CCCC(C)=CC=O [Citral, 3,7-dimethylocta-2,6-dienal] the “% free radicals” value was 16.5%.
For CC(C)=CCCC(C)CCO (stereo not shown) [Citronellol, 3,7-dimethyloct-6-en-1-ol], the “% free radicals” value was 6.6%.
In the case of O=c1ccc2ccccc2o1 [Coumarin, 2H-chromen-2-one], the “% free radicals” value is reported as 11.5%.
For CC(CC=O)CCCC(C)(C)O (stereo not shown) [Hydroxycitronellal], the “% free radicals” value was 3.7%.
In the case of COc1cc(C=O)ccc1O [Vanillin, 4-hydroxy-3-methoxybenzaldehyde], the “% free radicals” value is reported as 85.9%.

Source: US20230121157A1, “ANTI-AGING CARE COMPOSITION COMPRISING PERFUMES” (BASF SE, priority 2020, published 2023)
